In US6852673B2, “Herbicidal pyridine compounds” (BASF Aktiengesellschaft, priority 1998, dated 2005):

Key:
Type in all cases: in vivo
Galium aparine (GALAP) = test: Post-emergence herbicidal evaluation, cleaver; settings: rated 2 to 4 weeks after treatment
Method: (§1) [table] [table] […] These acetone solutions are diluted with water and the resulting formulations applied at dosage levels equivalent of about 0.03 to 0.4 kg per hectare of test compound per pot. After spraying the plants are placed on greenhouse benches and are cared for in the usual manner, commensurate with conventional greenhouse practices. From 2 to 4 weeks after treatment, the seedling plants are examined and rated according to the rating system provided above. A rating 0 indicates growth as untreated control, a rating 9 indicates death.

Hordeum vulgare (HORVW) [1] = test: Pre-emergence herbicidal evaluation, winter barley
Text: (§2) The pre-emergence herbicidal activity of the compounds of the present invention is exemplified by the following test in which the seeds of a variety of monocotyledonous and dicotyledonous plants are seperately mixed with potting soil and planted on top of approximately one inch of soil in separate pots. After planting, the pots are sprayed with the selected aqueous acetone solution containing test compound in sufficient quantity to provide the equivalent of about 0.0125 to 0.4 kg per hectare of test compound per pot. The treated pots are then placed on greenhouse benches, watered and cared for in accordance with conventional greenhouse procedures. From 2 to 4 weeks after treatment, the tests are terminated and each pot is examined and rated according to the rating system set forth below.

[2] = tested on: Ipomoea hederacea (IPOHE); test: Pre-emergence herbicidal evaluation, morning glory
Text: as §2

[3] = tested on: Triticum aestivum (TRZAW); test: Post-emergence herbicidal evaluation, winter wheat; settings: rated 2 to 4 weeks after treatment
Method: as §1

Lamium purpureum (LAMPU) [4] = test: Post-emergence herbicidal evaluation, purple deadnettle; settings: rated 2 to 4 weeks after treatment
Method: as §1

Setaria viridis (SETVI) [5] = test: Pre-emergence herbicidal evaluation, green foxtail
Text: as §2

[6] = tested on: Alopecurus myosuroides (ALOMY); test: Pre-emergence herbicidal evaluation, black grass
Text: as §2

[7] = tested on: Abutilon theophrasti (ABUTH); test: Pre-emergence herbicidal evaluation, velvetleaf
Text: as §2

Hordeum vulgare (HORVW) [8] = test: Post-emergence herbicidal evaluation, winter barley; settings: rated 2 to 4 weeks after treatment
Method: as §1

[9] = tested on: Triticum aestivum (TRZAW); test: Pre-emergence herbicidal evaluation, winter wheat
Text: as §2

Stellaria media (STEME) [10] = test: Post-emergence herbicidal evaluation, chickweed; settings: rated 2 to 4 weeks after treatment
Method: as §1

[11] = tested on: Matricaria inodora (MATIN); test: Pre-emergence herbicidal evaluation, mayweed
Text: as §2

Zea mays (ZEAMX) = test: Post-emergence herbicidal evaluation, maize; settings: rated 2 to 4 weeks after treatment
Method: as §1

[12] = tested on: Matricaria inodora (MATIN); test: Post-emergence herbicidal evaluation, mayweed; settings: rated 2 to 4 weeks after treatment
Method: as §1

Stellaria media (STEME) [13] = test: Pre-emergence herbicidal evaluation, chickweed
Text: as §2

Solanum nigrum (SOLNI) [14] = test: Post-emergence herbicidal evaluation, black nightshade; settings: rated 2 to 4 weeks after treatment
Method: as §1

Oryza sativum (ORYSA) [15] = test: Post-emergence herbicidal evaluation, rice; settings: rated 2 to 4 weeks after treatment
Method: as §1

Lamium purpureum (LAMPU) [16] = test: Pre-emergence herbicidal evaluation, purple deadnettle
Text: as §2

[17] = tested on: Ambrosia artemiisifolia (AMBEL); test: Post-emergence herbicidal evaluation, ragweed; settings: rated 2 to 4 weeks after treatment
Method: as §1

Oryza sativum (ORYSA) [18] = test: Pre-emergence herbicidal evaluation, rice
Text: as §2

[19] = tested on: Abutilon theophrasti (ABUTH); test: Post-emergence herbicidal evaluation, velvetleaf; settings: rated 2 to 4 weeks after treatment
Method: as §1

Solanum nigrum (SOLNI) [20] = test: Pre-emergence herbicidal evaluation, black nightshade
Text: as §2

[21] = tested on: Echinochloa grus galli (ECHCG); test: Pre-emergence herbicidal evaluation, barnyard grass
Text: as §2

Setaria viridis (SETVI) [22] = test: Post-emergence herbicidal evaluation, green foxtail; settings: rated 2 to 4 weeks after treatment
Method: as §1

Glycine max (GLXMA) = test: Pre-emergence herbicidal evaluation, soyabeans
Text: as §2

[23] = tested on: Ambrosia artemiisifolia (AMBEL); test: Pre-emergence herbicidal evaluation, ragweed
Text: as §2

Q: What does the source list for CC(Cl)=CCOc1cc(C)cc(Oc2cc(C(F)(F)F)nn2C)n1 [Example 11]?
A: GALAP rating (Galium aparine (GALAP); dose 0.03 kg/ha): 6 (6 - Herbicidal effect); GALAP rating (Galium aparine (GALAP); dose 0.1 kg/ha): 9 (9 - Complete kill); GALAP rating (Galium aparine (GALAP); dose 0.4 kg/ha): 9 (9 - Complete kill); HORVW rating (Hordeum vulgare (HORVW) [1]; dose 0.013 kg/ha): 3 (3 - Moderate effect); HORVW rating (Hordeum vulgare (HORVW) [1]; dose 0.025 kg/ha): 3 (3 - Moderate effect); HORVW rating (Hordeum vulgare (HORVW) [1]; dose 0.1 kg/ha): 3 (3 - Moderate effect); HORVW rating (Hordeum vulgare (HORVW) [1]; dose 0.4 kg/ha): 6 (6 - Herbicidal effect); IPOHE rating ([2]; dose 0.013 kg/ha): 2 (2 - Slight effect); IPOHE rating ([2]; dose 0.025 kg/ha): 4 (4 - Injury); IPOHE rating ([2]; dose 0.1 kg/ha): 8 (8 - Approaching complete kill); IPOHE rating ([2]; dose 0.4 kg/ha): 9 (9 - Complete kill); TRZAW rating ([3]; dose 0.03 kg/ha): 3 (3 - Moderate effect); TRZAW rating ([3]; dose 0.1 kg/ha): 3 (3 - Moderate effect); TRZAW rating ([3]; dose 0.4 kg/ha): 3 (3 - Moderate effect); LAMPU rating (Lamium purpureum (LAMPU) [4]; dose 0.03 kg/ha): 0 (0 - No effect); LAMPU rating (Lamium purpureum (LAMPU) [4]; dose 0.1 kg/ha): 3 (3 - Moderate effect); LAMPU rating (Lamium purpureum (LAMPU) [4]; dose 0.4 kg/ha): 8 (8 - Approaching complete kill); activity against Setaria (Setaria viridis (SETVI) [5]): superior activity; SETVI rating (Setaria viridis (SETVI) [5]; dose 0.013 kg/ha): 7 (7 - Good herbicidal effect); SETVI rating (Setaria viridis (SETVI) [5]; dose 0.025 kg/ha): 8 (8 - Approaching complete kill); SETVI rating (Setaria viridis (SETVI) [5]; dose 0.1 kg/ha): 9 (9 - Complete kill); SETVI rating (Setaria viridis (SETVI) [5]; dose 0.4 kg/ha): 9 (9 - Complete kill); ALOMY rating ([6]; dose 0.013 kg/ha): 6 (6 - Herbicidal effect); ALOMY rating ([6]; dose 0.025 kg/ha): 9 (9 - Complete kill); ALOMY rating ([6]; dose 0.1 kg/ha): 9 (9 - Complete kill); ALOMY rating ([6]; dose 0.4 kg/ha): 9 (9 - Complete kill); activity against Abutilon [7]: superior activity; ABUTH rating ([7]; dose 0.013 kg/ha): 3 (3 - Moderate effect); ABUTH rating ([7]; dose 0.025 kg/ha): 7 (7 - Good herbicidal effect); ABUTH rating ([7]; dose 0.1 kg/ha): 9 (9 - Complete kill); ABUTH rating ([7]; dose 0.4 kg/ha): 9 (9 - Complete kill); HORVW rating (Hordeum vulgare (HORVW) [8]; dose 0.03 kg/ha): 3 (3 - Moderate effect); HORVW rating (Hordeum vulgare (HORVW) [8]; dose 0.1 kg/ha): 4 (4 - Injury); HORVW rating (Hordeum vulgare (HORVW) [8]; dose 0.4 kg/ha): 4 (4 - Injury); TRZAW rating ([9]; dose 0.013 kg/ha): 0 (0 - No effect); TRZAW rating ([9]; dose 0.025 kg/ha): 2 (2 - Slight effect); TRZAW rating ([9]; dose 0.1 kg/ha): 2 (2 - Slight effect); TRZAW rating ([9]; dose 0.4 kg/ha): 4 (4 - Injury); STEME rating (Stellaria media (STEME) [10]; dose 0.03 kg/ha): 4 (4 - Injury); STEME rating (Stellaria media (STEME) [10]; dose 0.1 kg/ha): 6 (6 - Herbicidal effect); STEME rating (Stellaria media (STEME) [10]; dose 0.4 kg/ha): 8 (8 - Approaching complete kill); MATIN rating ([11]; dose 0.013 kg/ha): 9 (9 - Complete kill); MATIN rating ([11]; dose 0.025 kg/ha): 9 (9 - Complete kill); MATIN rating ([11]; dose 0.1 kg/ha): 9 (9 - Complete kill); MATIN rating ([11]; dose 0.4 kg/ha): 9 (9 - Complete kill); ZEAMX rating (Zea mays (ZEAMX); dose 0.03 kg/ha): 2 (2 - Slight effect); ZEAMX rating (Zea mays (ZEAMX); dose 0.1 kg/ha): 5 (5 - Definite injury); ZEAMX rating (Zea mays (ZEAMX); dose 0.4 kg/ha): 5 (5 - Definite injury); MATIN rating ([12]; dose 0.03 kg/ha): 7 (7 - Good herbicidal effect); MATIN rating ([12]; dose 0.1 kg/ha): 8 (8 - Approaching complete kill); MATIN rating ([12]; dose 0.4 kg/ha): 8 (8 - Approaching complete kill); activity against Stellaria (Stellaria media (STEME) [13]): superior activity; STEME rating (Stellaria media (STEME) [13]; dose 0.013 kg/ha): 8 (8 - Approaching complete kill); STEME rating (Stellaria media (STEME) [13]; dose 0.025 kg/ha): 9 (9 - Complete kill); STEME rating (Stellaria media (STEME) [13]; dose 0.1 kg/ha): 9 (9 - Complete kill); STEME rating (Stellaria media (STEME) [13]; dose 0.4 kg/ha): 9 (9 - Complete kill); SOLNI rating (Solanum nigrum (SOLNI) [14]; dose 0.03 kg/ha): 3 (3 - Moderate effect); SOLNI rating (Solanum nigrum (SOLNI) [14]; dose 0.1 kg/ha): 6 (6 - Herbicidal effect); SOLNI rating (Solanum nigrum (SOLNI) [14]; dose 0.4 kg/ha): 8 (8 - Approaching complete kill); ORYSA rating (Oryza sativum (ORYSA) [15]; dose 0.03 kg/ha): 1 (1 - Trace effect); ORYSA rating (Oryza sativum (ORYSA) [15]; dose 0.1 kg/ha): 3 (3 - Moderate effect); ORYSA rating (Oryza sativum (ORYSA) [15]; dose 0.4 kg/ha): 4 (4 - Injury); LAMPU rating (Lamium purpureum (LAMPU) [16]; dose 0.013 kg/ha): 5 (5 - Definite injury); LAMPU rating (Lamium purpureum (LAMPU) [16]; dose 0.025 kg/ha): 8 (8 - Approaching complete kill); LAMPU rating (Lamium purpureum (LAMPU) [16]; dose 0.1 kg/ha): 8 (8 - Approaching complete kill); LAMPU rating (Lamium purpureum (LAMPU) [16]; dose 0.4 kg/ha): 9 (9 - Complete kill); AMBEL rating ([17]; dose 0.03 kg/ha): 3 (3 - Moderate effect); AMBEL rating ([17]; dose 0.1 kg/ha): 7 (7 - Good herbicidal effect); AMBEL rating ([17]; dose 0.4 kg/ha): 8 (8 - Approaching complete kill); ORYSA rating (Oryza sativum (ORYSA) [18]; dose 0.013 kg/ha): 1 (1 - Trace effect); ORYSA rating (Oryza sativum (ORYSA) [18]; dose 0.025 kg/ha): 1 (1 - Trace effect); ORYSA rating (Oryza sativum (ORYSA) [18]; dose 0.1 kg/ha): 2 (2 - Slight effect); ORYSA rating (Oryza sativum (ORYSA) [18]; dose 0.4 kg/ha): 3 (3 - Moderate effect); ABUTH rating ([19]; dose 0.03 kg/ha): 5 (5 - Definite injury); ABUTH rating ([19]; dose 0.1 kg/ha): 7 (7 - Good herbicidal effect); ABUTH rating ([19]; dose 0.4 kg/ha): 8 (8 - Approaching complete kill); SOLNI rating (Solanum nigrum (SOLNI) [20]; dose 0.013 kg/ha): 5 (5 - Definite injury); SOLNI rating (Solanum nigrum (SOLNI) [20]; dose 0.025 kg/ha): 7 (7 - Good herbicidal effect); SOLNI rating (Solanum nigrum (SOLNI) [20]; dose 0.1 kg/ha): 8 (8 - Approaching complete kill); SOLNI rating (Solanum nigrum (SOLNI) [20]; dose 0.4 kg/ha): 9 (9 - Complete kill); ECHCG rating ([21]; dose 0.013 kg/ha): 4 (4 - Injury); ECHCG rating ([21]; dose 0.025 kg/ha): 6 (6 - Herbicidal effect); ECHCG rating ([21]; dose 0.1 kg/ha): 8 (8 - Approaching complete kill); ECHCG rating ([21]; dose 0.4 kg/ha): 9 (9 - Complete kill); SETVI rating (Setaria viridis (SETVI) [22]; dose 0.03 kg/ha): 5 (5 - Definite injury); SETVI rating (Setaria viridis (SETVI) [22]; dose 0.1 kg/ha): 6 (6 - Herbicidal effect); SETVI rating (Setaria viridis (SETVI) [22]; dose 0.4 kg/ha): 8 (8 - Approaching complete kill); selectivity in soybeans (Glycine max (GLXMA)): quite selective; GLXMA rating (Glycine max (GLXMA); dose 0.013 kg/ha): 0 (0 - No effect); GLXMA rating (Glycine max (GLXMA); dose 0.025 kg/ha): 1 (1 - Trace effect); GLXMA rating (Glycine max (GLXMA); dose 0.1 kg/ha): 2 (2 - Slight effect); GLXMA rating (Glycine max (GLXMA); dose 0.4 kg/ha): 4 (4 - Injury); AMBEL rating ([23]; dose 0.013 kg/ha): 7 (7 - Good herbicidal effect); AMBEL rating ([23]; dose 0.025 kg/ha): 9 (9 - Complete kill); AMBEL rating ([23]; dose 0.1 kg/ha): 9 (9 - Complete kill); AMBEL rating ([23]; dose 0.4 kg/ha): 9 (9 - Complete kill)
